Results published in US10160986B2, “Chemoenzymatic synthesis of heparin and heparan sulfate analogs” (The Regents of the University of California, priority 2011, dated 2018).
Where two headings read alike, the source gives them in different places.

Columns and labels:
[1] = tested on: CC(=O)N[C@H]1C(O)O[C@H](CO)[C@@H](O)[C@@H]1O; assay: purified protein, by the assay type; details: other: substrates ATP and GlcNAc, one varied, other fixed at 1 mM, 37° C., 10 min, pH 7.5
Procedure: (§6) Kinetics by CE assays. Reactions were carried out in duplicate at 37° C. for 10 min in a total volume of 20 μL in Tris-HCl buffer (200 mM, pH 7.5) containing MgCl2 (1 mM), ATP, GlcNAc or GalNAc, and NahK (0.25 μM when GlcNAc and ATP were used as substrates, 0.5 μM when GalNAc and ATP were used as substrates). Apparent kinetic parameters were obtained by varying the ATP concentration from 0.1-5.0 mM (0.1 mM, 0.2 mM, 0.4 mM, 1 mM, 2 mM, and 5 mM) at a fixed concentration of GlcNAc or GalNAc (1 mM), or varying the concentration of GlcNAc or GalNAc (0.1 mM, 0.2 mM, 0.4 mM, 1 mM, 2 mM, and 5 mM) at a fixed concentration of ATP (1 mM) and fitting the data to the Michaelis-Menten equation using Grafit 5.0.

[2] = tested on: CC(=O)N[C@H]1C(O)O[C@H](CO)[C@H](O)[C@@H]1O; assay: purified protein, by the assay type; details: other: substrates ATP and GalNAc, one varied, other fixed at 1 mM, 37° C., 10 min, pH 7.5
Procedure: as §6

[3] = biological target: T1, EcGalK (Escherichia coli, UniProt P0A6T3); assay: Kinase reaction monitored by CE (ATP to ADP), EcGalK; assay type: biochemical; details: monosaccharide 15 mM, ATP 18 mM, 37° C.
T1 construct: made in house
Procedure: (§1) Capillary electrophoresis (CE) and thin-layer chromatograph (TLC) assays for kinase reactions. […] These conditions were similar to those used for preparative-scale synthesis. After 1 hr, 4 hr, and 24 hr, an aliquot of 8 μL was withdrawn from each reaction mixture, boiled in a water bath for 5 min and stored at −20° C. until being analyzed by capillary electrophoresis (CE) and TLC. For TLC analysis, 0.5 μL of each sample was directly spotted on TLC plates, developed using suitable developing solvents, and stained with anisaldehyde sugar stain. For CE analysis, 1.5 μL of each sample was diluted into 30 μL and subjected to CE analysis as described above for pH profile studies.

[4] = tested on: PmHS2; assay: Donor substrate specificity of PmHS2 by HPLC (Example 1); assay type: biochemical, Pasteurella multocida; details: acceptor GlcAα2AA 1 mM, UDP-sugar 1 mM, MnCl2 10 mM, pH 6.5, 37° C.
Procedure: pH profile by HPLC. Typical enzymatic assays were performed in a 10 μl reaction mixture containing a buffer (100 mM) with a pH in the range of 4.0-10.0, UDP-GlcNAc (1 mM), GlcAβ2AA (1 mM), MnCl2 (10 mM) and KfiA (9.0 μg) or PmHS2 (0.25 μg). Buffers used were: Na2HPO4/citric acid, pH 4.0; MES, pH 5.0-6.5; TrisHCl, pH 7.0-9.0; and CAPS, pH 10.0. Reactions were allowed to proceed for 30 min at 37° C. and were quenched by adding ice-cold 10% (v/v) acetonitrile to make 100-fold dilutions. The samples were then kept on ice until an aliquot of 8 μl was injected and analyzed by a Shimadzu LC-2010A system equipped with a membrane on-line degasser, a temperature control unit and a fluorescence detector. A reverse phase Premier C18 column (250 9 4.6 mm I.D., 5 μm particle size, Shimadzu) protected with a C18 guard column cartridge was used. The mobile phase was 25% (v/v) acetonitrile. The fluorescent compounds GlcAβ2AA and GlcNAcα1-4GlcAβ2AA were detected by excitation at 315 nm and emission at 400 nm.
Substrate specificity of KfiA and PmHS2. All reactions were carried out in duplicate at 37° C. in MES (100 mM, pH 6.5) containing an UDP-GlcNAc or its derivatives (1 mM), […] (1 mM), MnCl2 (10 mM) and KfiA ([…] PmHS2 (2.5×10^−2 μg μl^−1). At 30 min, 4 h or 16 h, aliquots of reaction mixture were withdrawn and were quenched by adding ice-cold 10% (v/v) acetonitrile to make 100-fold dilutions. The assays were analyzed by HPLC.

[5] = tested on: His6-PmHS2; assay: GlcNAcT donor substrate specificity of His6-PmHS2 (Example 12); assay type: biochemical, Pasteurella multocida; details: acceptor GlcAβ2AA 1 mM, UDP-sugar 1 mM, MnCl2 10 mM, PmHS2 1.1 μg μl^−1, 24 h, 37° C.
Procedure: (§2) PmHS2, KfiA, and related fusion proteins were expressed, purified, and characterized as described in Example 1. Reactions with UDP-sugars were carried out in duplicate at 37° C. in MES (100 mM, pH 6.5) containing UDP-GlcNAc or one of its derivatives (1 mM), GlcAβ2AA (1 mM), MnCl2 (10 mM) and KfiA (2.8 μg μl^−1) or PmHS2 (1.1 μg μl^−1) for 24 h. The reaction mixtures were stopped by adding ice-cold 10% (v/v) acetonitrile to make 100-fold dilutions and the mixtures were analyzed by HPLC as described for the pH profile.
(§3) Substrate specificity of the GlcNAcT activities of MBP-KfiA-his6 and his6-PmHS2. […] The reactions were easily analyzed by high performance liquid chromatography (HPLC) equipped with a fluorescence detector using an excitation wavelength of 315 nm and an emission wavelength of 400 nm to determine the ratio of the fluorescent disaccharide product formed and the fluorescent GlcAβ2AA acceptor.

[6] = tested on: T2, MBP-KfiA-His6 (Escherichia coli); assay: GlcNAcT donor substrate specificity of MBP-KfiA-His6 (Example 12); assay type: biochemical, E. coli; details: acceptor GlcAβ2AA 1 mM, UDP-sugar 1 mM, MnCl2 10 mM, KfiA 2.8 μg μl^−1, 24 h, 37° C.
T2 construct: made in house; host or cells: E. coli BL21(DE3) co-expressing chaperone plasmid pGro7
Procedure: as §2, §3

[7] = tested on: PmHS2; assay: Small-scale PmHS2 donor substrate test by TLC; assay type: biochemical, Pasteurella multocida; details: GlcAβ2AAMe 10 mM, donor 15 mM, MgCl2 10 mM, PmHS2 0.5 mg/mL, pH 7.5, 37° C., 12 hr
Procedure: Prior to applying the one-pot three-enzyme system shown in FIG. 16 to the preparative-scale synthesis of the disaccharides, UDP-GlcNAc and derivatives F17-1-F17-12 were tested as donor substrates for PmHS2 in small-scale reaction containing Tris-HCl buffer (100 mM, pH 7.5), GlcAβ2AAMe (10 mM), UDP-GlcNAc or a derivative (15 mM), MgCl2 (10 mM), and PmHS2 (0.5 mg/mL). The reactions were carried out at 37° C. for 12 hr and analyzed by thin layer chromatography (TLC).

[8] = tested on: NahK; assay: Kinase reaction monitored by CE (ATP to ADP), NahK; assay type: biochemical, Bifidobacterium infantis; details: monosaccharide 15 mM, ATP 18 mM, 37° C.
Procedure: Capillary electrophoresis (CE) and thin-layer chromatograph (TLC) assays for kinase reactions. Kinase reactions were carried out at 37° C. in a total volume of 30 μL in Tris-HCl buffer (100 mM, pH 8.0) containing monosaccharide (15 mM), ATP (18 mM, 1.2 eq.), MgCl2 (10 mM), and a kinase (6 μg). These conditions were similar to those used for preparative-scale synthesis. After 1 hr, 4 hr, and 24 hr, an aliquot of 8 μL was withdrawn from each reaction mixture, boiled in a water bath for 5 min and stored at −20° C. until being analyzed by capillary electrophoresis (CE) and TLC. For TLC analysis, 0.5 μL of each sample was directly spotted on TLC plates, developed using suitable developing solvents, and stained with anisaldehyde sugar stain. For CE analysis, 1.5 μL of each sample was diluted into 30 μL and subjected to CE analysis as described above for pH profile studies.
General methods for compound purification and characterization. Chemicals were purchased and used without further purification. ^1H NMR and ^13C NMR spectra were recorded on a Varian Mercury 600 NMR spectrometer. High resolution electrospray ionization (ESI) mass spectra were obtained in negative mode using Thermo Electron LTQ-Orbitrap mass spectrometer. Silica gel 60 Å (Sorbent Technologies) was used for flash column chromatography. Thin-layer chromatography (TLC) was performed on silica gel plates 60 GF254 (Sorbent Technologies) using anisaldehyde sugar stain for detection. Gel filtration chromatography was performed with a column (100 cm×2.5 cm) packed with BioGel P-2 Fine resins (Bio-Rad). GlcN3 (T6-9) (Lau K, Thon, V, Yu H, Ding L, Chen Y, Muthana M M, Wong D, Huang R, and Chen X. Chem. Commun. 2010, 46, 6066-6068), ManF (T6-11) (Burkart M D, Zhang Z, Hung S-C, and Wong C-H. J. Am. Chem. Soc. 1997, 119, 11743-11746; Cao H, Li Y, Lau K, Muthana S, Yu H, Cheng J, Chokhawala H A, Sugiarto G, Zhang L, and Chen X. Org. Biomol. Chem. 2009, 7, 5137-5145), GalN3 (T6-4) and ManN3 (T6-14) (Yu H, Yu H, Karpel R, cand Chen X. Bioorg. Med. Chem. 2004, 12, 6427-6435) were previously synthesized using reported methods. NahK_ATCC15697, EcGalK, SpGalK, and PmPpA were overexpressed as described previously.

[9] = biological target: NahK_ATCC15697 (Bifidobacterium longum, UniProt B7GN78); assay: Substrate specificity CE assay, NahK_ATCC15697; assay type: biochemical, Bifidobacterium infantis
Procedure: (§4) Substrates specificity assays. GlcNAc, GalNAc, and their derivatives (1 mM) were used as substrates in the presence of ATP (1 mM) and MgCl2 (5 mM) in a Tris-HCl buffer (pH 8.0, 200 mM) to analyze the substrate specificity of NahKs. Two concentrations (0.75 μM or 15 μM) of each NahK were used and the reactions were allowed to proceed for 10 min (for 0.75 μM NahK) or 30 min (for 15 μM NahK) at 37° C. […] All other conditions were the same as for GlcNAc, GalNAc, and their derivatives.
(§5) Capillary electrophoresis (CE) assays. Based on the detection of ADP and ATP in the reaction mixture by a UV detector, a capillary electrophoresis-based method was developed to directly measure the formation of ADP and N-acetylhexosamine-1-phosphate from ATP and N-acetylhexosamine for characterizing the activities of NahKs.

[10] = biological target: T3, SpGalK (Streptococcus pneumoniae serotype 4, UniProt Q97NZ6); assay: Kinase reaction monitored by CE (ATP to ADP), SpGalK; assay type: biochemical, Streptococcus pneumoniae TIGR4; details: monosaccharide 15 mM, ATP 18 mM, 37° C.
T3 construct: made in house
Procedure: as §1

[11] = biological target: T4, AtGlcAK (Arabidopsis thaliana, UniProt Q93ZC9, I297M); assay: AtGlcAK substrate specificity CE assay; assay type: biochemical; details: High enzyme Conc. (2.1 μg in 20 μL, 60 min, 37° C.)
T4 construct: made in house; host or cells: E. coli BL21 (DE3)
Procedure: Substrate specificity assays. […] The reactions were quenched and assayed with the same method as those for pH profile. All reactions were performed in duplicates.

[12] = biological target: NahK_ATCC55813 (Bifidobacterium longum subsp. longum, UniProt E8MF12, D7V/R348H); assay type: biochemical; set-up: made in house; host or cells: E. coli BL21(DE3)
Procedure: as §4, §5

[13] = tested on: Nc1ncnc2c1ncn2[C@@H]1O[C@H](COP(=O)(O)OP(=O)(O)OP(=O)(O)O)[C@@H](O)[C@H]1O; assay: purified protein, by the assay type; details: one varied, other fixed at 1 mM, 37° C., 10 min, pH 7.5
Procedure: as §6

[14] = Glc, Gal, Man, ManNAc and derivatives, enzyme 15, 37° C. for 30 min (Table 3), listed as drawing 47
[15] = 0.75 μM enzyme, 10 min at 37° C., substrate 1 mM, ATP 1 mM
[16] = other: substrates ATP and GalNAc
[17] = other: substrates ATP and GlcNAc

NahK_ATCC55813 (Bifidobacterium longum subsp. longum JCM 1217; D7V/R348H)
Km [1]: 60 ± 10 µM | kcat [1]: 1.1 ± 0.1 s⁻¹ | kcat/Km [1]: 18300 M⁻¹ s⁻¹ | Km [2]: 80 ± 30 µM | kcat [2]: 0.57 ± 0.04 s⁻¹ | kcat/Km [2]: 7100 M⁻¹ s⁻¹

N[C@H]1C(O)O[C@H](CO)[C@H](O)[C@@H]1O (some centres unmarked) [T6-3 GalNH2, galactosamine]
ATP Conversion ([3]; 1 hr): 90.2%

CC(=O)N[C@H]1[C@@H](OP(=O)(O)OP(=O)(O)OC[C@H]2O[C@@H](n3ccc(=O)[nH]c3=O)[C@H](O)[C@@H]2O)O[C@H](CN=[N+]=[N-])[C@@H](O)[C@@H]1O [Compound F17-8, Uridine 5′-diphospho-2-acetamido-6-azido-2,6-dideoxy-α-D-glucopyranoside]
donor substrate for PmHS2 [4]: is a substrate for PmHS2 | donor substrate for the α1-4GlcNAcT activity of His6-PmHS2 [5]: suitable donor substrates for His6-PmHS2 | donor substrate for MBP-KfiA-His6 [6]: can be used by MBP-KfiA-His6 | donor substrate for PmHS2 [7]: tolerable donor substrates

OCC1OC(O)C(O)[C@@H](O)[C@@H]1O (some centres unmarked) [Glc, glucose]
ATP Conversion ([3]; 1 hr): 8.2% | ATP Conversion ([3]; 4 hr): 13.0% | ATP Conversion ([3]; 24 hr): 66.4% | ATP Conversion ([8]; 4 hr): 18.6% | ATP Conversion ([8]; 24 hr): 82.2% | Percentage Conversion [9, 14]: 9.1 ± 0.1% | ATP Conversion ([10]; 1 hr): 6.9% | ATP Conversion ([10]; 4 hr): 13.8% | ATP Conversion ([10]; 24 hr): 75.5% | Percentage conversion of ATP [11]: <5% | Percentage Conversion [12, 14]: 4.7 ± 0.1%

OCC1OC(O)CC(O)[C@H]1O (some centres unmarked) [T6-2 2-deoxyGal, 2-deoxyGal]
ATP Conversion ([3]; 1 hr): 78.5% | ATP Conversion ([3]; 4 hr): 87.6% | ATP Conversion ([10]; 1 hr): 80.3% | ATP Conversion ([10]; 4 hr): 89.5%

CC(=O)NC1C(O)OC(CO)[C@H](O)[C@@H]1O (some centres unmarked) [GalNAc, N-acetylgalactosamine]
Percentage Conversion [9, 15]: 12.5 ± 0.1% | ATP Conversion ([10]; 1 hr): 11.8% | ATP Conversion ([10]; 4 hr): 24.7% | ATP Conversion ([10]; 24 hr): 69.5% | Percentage Conversion [12, 15]: 19.9 ± 0.1%

NahK_ATCC15697 (Bifidobacterium longum subsp. infantis ATCC 15697 = JCM 1222 = DSM 20088)
Km [13, 16]: 80 ± 30 µM | kcat [13, 16]: 0.38 ± 0.02 s⁻¹ | kcat/Km [13, 16]: 4800 M⁻¹ s⁻¹ | Km [13, 17]: 100 ± 30 µM | kcat [13, 17]: 1.1 ± 0.1 s⁻¹ | kcat/Km [13, 17]: 11000 M⁻¹ s⁻¹ | Km [1]: 60 ± 10 µM | kcat [1]: 0.95 ± 0.01 s⁻¹ | kcat/Km [1]: 15800 M⁻¹ s⁻¹ | Km [2]: 90 ± 50 µM | kcat [2]: 0.46 ± 0.07 s⁻¹ | kcat/Km [2]: 5100 M⁻¹ s⁻¹

O=C[C@H](O)[C@@H](O)[C@H](O)CO [Xyl, xylose]
Percentage conversion of ATP [11]: <5%
